Assay results reported in patent US4435566A, “Thiopyranopyrimidine compounds and acid addition salts thereof” (Maruko Seiyaku Co., Ltd., priority 1982, dated 1984).
“Also recorded” adds a separate entry of the source. Where two headings read alike, the source gives them in different places.

Legend:
[1] = Acute toxicity (Behrens-Karber method); settings: mouse, in vivo, mortality one week after administration
Procedure: The test compound was administered orally (p.o.) or intravenously (i.v.) from a tail vein to ddY male mice weighing 24±2 g. The LD50 values were calculated by the Behrens-Karber method [Arch. exp. Path. Pharmak., 177, 379 (1935)] from the mortality one week after administration.

Alloxan Diabetes Mice [2] = assay: Hypoglycemic activity (c): effect on alloxan diabetes mice, ED20; type: in vivo, mice (ddY male); settings: Mus musculus; oral; 3 hours after administration; alloxan 50 mg/kg i.v.
Procedure: (§1) Alloxan was administered intravenously at a dose of 50 mg/kg from a tail vein to 5W ddY male mice weighing 23 to 27 g (10 […] per group). Seven days after administration, the test compound was administered orally to the mice and a blood sample was collected from the sacrificed mice after 3 hours. The blood sugar level of the sample was determined by the o-toluidine-boric acid method. The percent inhibition was calculated from the values in test group and the control, and a 20% inhibitory effective dose (ED20) was determined from a dose response curve.

Normal Mice = assay: Hypoglycemic activity (d): effect on normal mice, ED20; type: in vivo, mice (ddY male); settings: Mus musculus; oral; 3 hours after administration
Procedure: as §1
The test compound was administered orally to 6W ddY male mice and, 3 hours after administration, a blood sample was drawn from the sacrificed mice. The blood sugar level of the sample was determined and ED20 values were calculated in the same manner as described in (c) above.

[3] = target: T1, ileum of Hartley male guinea pig (histamine) (Cavia porcellus, UniProt P31389); assay: Anti-histamine activity on isolated ileum (Magnus tube, cumulative technique); settings: for Kb: Tyrode solution, 25±0.5° C., histamine added after 5 minutes, read-out: pA2 Value (converted)
T1 construct: The ileum of Hartley male guinea pig (body weight: 350-400 g) was extracted and suspended in a Magnus tube; from tissue; host or cells: isolated ileum of Hartley male guinea pig
Procedure: The ileum of Hartley male guinea pig (body weight: 350-400 g) was extracted and suspended in a Magnus tube containing 40 ml of Tyrode solution and the muscle movement was recorded on a soot paper via an isotonic Hebel. The solution in the Magnus tube was maintained at 25±0.5° C. during the test and test compound was previously added to the solution.

Alloxan Diabetes Mice [4] = assay: Hypoglycemic activity (a): effect on alloxan diabetes mice, blood sugar 2 hours after oral administration; type: in vivo, mice (ddY male); settings: for % Change in Blood Sugar Level / Blood Sugar Level Mean ± S.E.: 2 hours after administration; for Blood Sugar Level Mean ± S.E.: alloxan 40 mg/kg i.v.
Procedure: Alloxan was administered intravenously at a dose of 40 mg/kg from a tail vein to ddY male mice weighing 28.2 to 29.5 g. Seven days after administration, the test compound was administered orally to the mice and the blood sugar level was determined before and 2 hours after the administration of the test compound.

platelet aggregation = assay: Inhibition of platelet aggregation in platelet-rich plasma (aggregometer); type: cell-based, rabbits (male); settings: for IC50: Oryctolagus cuniculus, Platelet; for Percent Inhibition, Collagen: Collagen (5 × 10^-4 g/ml)
Procedure: A blood sample drawn from a jugular vein of unanesthetized male rabbits (body weight: 2.2 to 2.6 kg) was mixed with a 3.8% aqueous sodium citrate solution in a proportion of 9:1 (by volume) and the mixture was centrifuged at 1,000 rpm for 10 minutes to obtain a platelet-rich plasma (about 5×10^5 platelets/mm^3, hereinafter "PRP"). To […] of PRP was added […] of an aqueous solution of the test compound and, after 2 hours, to the mixture was added either an adenosine diphosphate (ADP) solution (final concentration: 5×10^-6 M), a sodium arachidonate solution (final concentration: 5×10^-4 M) or collagen. The percent platelet aggregation was determined using an aggregometer and the inhibition of platelet aggregation by the test compound was calculated.

Alloxan Diabetes Rats [5] = assay: Hypoglycemic activity (b)(1): effect on alloxan diabetes rats, blood sugar 2 hours after oral administration; type: in vivo, rats (Wister male); settings: for % Change in Blood Sugar Level / Blood Sugar Level Mean ± S.E.: 2 hours after administration; for Blood Sugar Level Mean ± S.E.: alloxan 30 mg/kg i.v.
Procedure: (1) Alloxan was administered intravenously at a dose of 30 mg/kg from a tail vein to Wister male rats weighing 200 to 218 g. Three days after administration, the test compound was administered orally to the rats and the blood sugar level was determined before and 2 hours after administration of the test compound.

Alloxan Diabetes Rats [6] = assay: Hypoglycemic activity (b)(2): effect on alloxan diabetes rats, time course of blood sugar (o-toluidine-boric acid method); type: in vivo, rats (Wister male); set-up: unit not given here; settings: 100 mg/kg, oral
Procedure: (2) Alloxan was administered intravenously at a dose of 18 mg/kg to 9-10W Wister male rats weighing 240 to 280 g. Three days after administration, the test compound was administered orally to the rats (after fasting for 4 hours) and the blood sugar level was determined before and 1, 2 and 3 hours after administration of the test compound with respect to the blood samples drawn from the jugular vein by the o-toluidine-boric acid method.

[7] = rabbit PRP, ADP final concentration 5×10^-6 M, read-out: IC50, ADP
[8] = rabbit PRP, sodium arachidonate final concentration 5×10^-4 M, read-out: OC50, Arachidonic Acid

T1 sequence (P31389 whole entry): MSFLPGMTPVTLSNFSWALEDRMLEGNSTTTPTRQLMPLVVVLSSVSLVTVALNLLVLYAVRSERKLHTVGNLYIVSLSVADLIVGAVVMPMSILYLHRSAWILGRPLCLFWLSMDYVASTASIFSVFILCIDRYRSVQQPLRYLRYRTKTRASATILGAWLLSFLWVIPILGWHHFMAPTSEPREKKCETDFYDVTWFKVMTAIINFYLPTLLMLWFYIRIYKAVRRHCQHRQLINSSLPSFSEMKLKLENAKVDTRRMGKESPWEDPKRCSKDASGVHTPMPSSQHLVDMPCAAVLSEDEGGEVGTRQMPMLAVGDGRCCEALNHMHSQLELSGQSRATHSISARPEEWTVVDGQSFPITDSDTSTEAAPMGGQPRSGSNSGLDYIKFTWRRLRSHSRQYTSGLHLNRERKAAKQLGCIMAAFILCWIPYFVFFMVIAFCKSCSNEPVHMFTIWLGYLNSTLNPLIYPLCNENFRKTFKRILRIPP

SMILES: CNc1nc(N2CCNCC2)nc2c1SCCC2 [Compound B, 4-methylamino-2-piperazino-7,8-dihydro-6H-thiopyrano[3,2-d]pyrimidine]
- LD50 at 168 h ([1]; po, read-out: LD50, p.o.): 580 mg/kg
- ED20 (Alloxan Diabetes Mice [2]): 53 mg/kg
- ED20 (Normal Mice): 37 mg/kg

SMILES: C1CSc2c(nc(N3CCNCC3)nc2N2CCCC2)C1.O=C(O)/C=C\C(=O)O [Compound E, 2-piperazino-4-pyrrolidino-7,8-dihydro-6H-thiopyrano[3,2-d]pyrimidine maleate]
- LD50 at 168 h ([1]; iv, read-out: LD50, i.v.): 125 mg/kg
- LD50 at 168 h ([1]; po, read-out: LD50, p.o.): 1170 mg/kg
- anti-histamine activity compared with Diphenhydramine (in words) [3]: substantially equal to that of Diphenhydramine
- Kb [3]: 0.0427 µM
- hypoglycemic activity (in words) (Alloxan Diabetes Mice [4]; 200 mg/kg): significant hypoglycemic activity
- % Change in Blood Sugar Level (Alloxan Diabetes Mice [4]; 200 mg/kg): -36.3%
- Blood Sugar Level Mean ± S.E. (Alloxan Diabetes Mice [4]; 200 mg/kg): 205.5 ± 29.3 mg/dL

SMILES: Nc1nc(N2CCNCC2)nc2c1SCCC2 [Compound D, 4-Amino-2-piperazino-7,8-dihydro-6H--thiopyrano[3,2-d]pyrimidine Dimaleate]
- LD50 at 168 h ([1]; po, read-out: LD50, p.o.): 820 mg/kg
- ED20 (Alloxan Diabetes Mice [2]): 52 mg/kg
- ED20 (Normal Mice): 11 mg/kg

SMILES: CC(=O)Oc1ccccc1C(=O)O [Acetylsalicylic Acid (Aspirin), Acetylsalicylic Acid, reference compound]
- IC50 (platelet aggregation; read-out: IC50, ADP): 2000 µM
- IC50 (platelet aggregation; read-out: OC50, Arachidonic Acid): 180 µM

SMILES: C1CSc2c(nc(N3CCNCC3)nc2N2CCOCC2)C1.O=C(O)/C=C\C(=O)O [Compound G, 4-morpholino-2-piperazino-7,8-dihydro-6H-thiopyrano[3,2-d]pyrimidine maleate]
- LD50 at 168 h ([1]; iv, read-out: LD50, i.v.): 135 mg/kg
- LD50 at 168 h ([1]; po, read-out: LD50, p.o.): 960 mg/kg
- IC50 (platelet aggregation; [7]): 150 µM
- IC50 (platelet aggregation; [8]): 750 µM
- Percent Inhibition, Collagen (platelet aggregation; rabbit PRP): 95%
- % Change in Blood Sugar Level (Alloxan Diabetes Rats [5]; 100 mg/kg): -30.2%
- Blood Sugar Level Mean ± S.E. (Alloxan Diabetes Rats [5]; 100 mg/kg): 286.3 ± 76 mg/dL
- hypoglycemic activity (in words) (Alloxan Diabetes Rats [5]; 100 mg/kg, maleate): significant hypoglycemic activity; also recorded: strongest activity
- Blood Sugar Level Mean ± S.E., After 1 Hr. (Alloxan Diabetes Rats [6]; 1 hour after administration, fasted 4 hours): 141.3 ± 10.4
- Blood Sugar Level Mean ± S.E., After 2 Hrs. (Alloxan Diabetes Rats [6]; 2 hours after administration, fasted 4 hours): 130.6 ± 12.6
- Blood Sugar Level Mean ± S.E., After 3 Hrs. (Alloxan Diabetes Rats [6]; 3 hours after administration, fasted 4 hours): 130.3 ± 10.3
- Blood Sugar Level Mean ± S.E., Before (Alloxan Diabetes Rats [6]; before administration (baseline)): 189.5 ± 9.4
- hypoglycemic activity (in words) (Alloxan Diabetes Mice [4]; 200 mg/kg): significant hypoglycemic activity
- % Change in Blood Sugar Level (Alloxan Diabetes Mice [4]; 200 mg/kg): -39.5%
- Blood Sugar Level Mean ± S.E. (Alloxan Diabetes Mice [4]; 200 mg/kg): 195.2 ± 39.7 mg/dL

SMILES: CN1CCN(c2nc3c(c(N4CCCC4)n2)SCCC3)CC1.O=C(O)/C=C\C(=O)O [Compound F, 2-(N-methylpiperazino)-4-pyrrolidino-7,8-dihydro-6H-thiopyrano[3,2-d]pyrimidine maleate]
- LD50 at 168 h ([1]; iv, read-out: LD50, i.v.): 100 mg/kg
- LD50 at 168 h ([1]; po, read-out: LD50, p.o.): 1250 mg/kg
- anti-histamine activity compared with Diphenhydramine (in words) [3]: substantially equal to that of Diphenhydramine
- Kb [3]: 0.0204 µM
- IC50 (platelet aggregation; [8]): 30 µM
- Percent Inhibition, Collagen (platelet aggregation; rabbit PRP): 73%

SMILES: Nc1nc2c(c(N3CCNCC3)n1)SCCC2.O=C(O)/C=C\C(=O)O.O=C(O)/C=C\C(=O)O [Compound C, 2-amino-4-piperazino-7,8-dihydro-6H-thiopyrano[3,2-d]pyrimidine dimaleate]
- LD50 at 168 h ([1]; po, read-out: LD50, p.o.): 1400 mg/kg
- ED20 (Alloxan Diabetes Mice [2]): 47 mg/kg
- ED20 (Normal Mice): 230 mg/kg

SMILES: CN1CCN(c2nc(N)c3c(n2)CCCS3)CC1 [Compound A, 4-amino-2-(N-methylpiperazino)-7,8-dihydro-6H-thiopyrano[3,2-d]pyrimidine]
- LD50 at 168 h ([1]; po, read-out: LD50, p.o.): 1450 mg/kg
- ED20 (Alloxan Diabetes Mice [2]): 60 mg/kg
- ED20 (Normal Mice): 127 mg/kg

SMILES: CCCCNC(=O)NS(=O)(=O)c1ccc(C)cc1 [Tolbutamide, 1-Butyl-3-(p-tolylsulfonyl)-urea, reference compound]
- hypoglycemic activity (in words) (Alloxan Diabetes Rats [5]; 300 mg/kg): significant hypoglycemic activity
- % Change in Blood Sugar Level (Alloxan Diabetes Rats [5]; 300 mg/kg): -18.6%
- Blood Sugar Level Mean ± S.E. (Alloxan Diabetes Rats [5]; 300 mg/kg): 285.2 ± 2.8 mg/dL
- hypoglycemic activity (in words) (Alloxan Diabetes Mice [4]; 500 mg/kg): weak hypoglycemic activity
- % Change in Blood Sugar Level (Alloxan Diabetes Mice [4]; 500 mg/kg): -13.7%
- Blood Sugar Level Mean ± S.E. (Alloxan Diabetes Mice [4]; 500 mg/kg): 278.4 ± 25.7 mg/dL

SMILES: CN1CCN(c2nc3c(c(N4CCOCC4)n2)SCCC3)CC1 [Compound H, 2-(N-methylpiperazino)-4-morpholino-7,8-dihydro-6H-thiopyrano[3,2-d]pyrimidine]
- LD50 at 168 h ([1]; iv, read-out: LD50, i.v.): 200 mg/kg
- LD50 at 168 h ([1]; po, read-out: LD50, p.o.): 1580 mg/kg
- IC50 (platelet aggregation; [7]): 1000 µM
- IC50 (platelet aggregation; [8]): 8.4 µM
- Percent Inhibition, Collagen (platelet aggregation; rabbit PRP): 65%

SMILES: CCCCNC(=N)NC(=N)N [Buformin, 1-Butyl-biguanide, reference compound]
- hypoglycemic activity (in words) (Alloxan Diabetes Rats [5]; 100 mg/kg): significant hypoglycemic activity
- % Change in Blood Sugar Level (Alloxan Diabetes Rats [5]; 100 mg/kg): -22.9%
- Blood Sugar Level Mean ± S.E. (Alloxan Diabetes Rats [5]; 100 mg/kg): 275.5 ± 6.0 mg/dL
- hypoglycemic activity (in words) (Alloxan Diabetes Mice [4]; 150 mg/kg): weak hypoglycemic activity
- % Change in Blood Sugar Level (Alloxan Diabetes Mice [4]; 150 mg/kg): -15.3%
- Blood Sugar Level Mean ± S.E. (Alloxan Diabetes Mice [4]; 150 mg/kg): 273.3 ± 28.7 mg/dL
